From patent US20260200928A1, “THERAPEUTIC COMPOUNDS” (Sanofi, priority 2022, published 2026)

Biological target: T1, human IL-17A (Homo sapiens, UniProt Q16552)
T1 construct: purchased R&D Systems 7955-IL/CF
T1 sequence (Q16552 24-155): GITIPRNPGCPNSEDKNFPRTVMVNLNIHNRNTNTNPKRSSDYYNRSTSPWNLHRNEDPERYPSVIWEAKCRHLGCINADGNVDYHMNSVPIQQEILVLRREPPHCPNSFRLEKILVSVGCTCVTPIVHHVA
Assay: IL-17A AlphaLISA competition assay (block of IL-17A binding to its receptor IL-17RA)
Settings: mean IC50 (n≥2), block of IL-17A binding to IL-17RA
Procedure, shortened: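 Bead-based AlphaLISA competition in PBS with 0.05% Tween-20 and 0.1% BSA: compound first meets human IL-17A (7.5 nM stock) for 30 min, then IL-17RA/Fc (5 nM stock) for 90 min, all at room temperature, before acceptor/donor bead capture. IC50 fitted 4-parameter, DMSO and 4 μM reference inhibitor as controls; at least duplicate.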

Molecule | IC50
CCn1nccc1C(=O)N[C@H](C(=O)Nc1cc(O[C@H]2C[C@@H](C(F)(F)F)NC2=O)ccn1)[C@H]1CC[C@H](C)CC1 [Example 322, 1-ethyl-N—((S)-1-((1r,4S)-4-methylcyclohexyl)-2-oxo-2-((4-(((3S,5S)-2-oxo-5-(trifluoromethyl)pyrrolidin-3-yl)oxy)pyridin-2-yl)amino)ethyl)-1H-pyrazole-5-carboxamide] | 0.821 µM
COCC(c1ccnc(NC(=O)[C@@H](NC(=O)c2nc(Cl)ncc2C)[C@H]2CC[C@H](C)CC2)c1)N1C[C@@H](C(F)(F)F)NC1=O (single isomer, unassigned) [Example 95] | 5.49 µM
C[C@@H]1CN(Cc2ccnc(NC(=O)[C@@H](NC(=O)c3ccnn3C)C(C3CC3)C3CC3)c2)C(=O)N1 [Example 33, N—((S)-1,1-dicyclopropyl-3-((4-(((R)-4-methyl-2-oxoimidazolidin-1-yl)methyl)pyridin-2-yl)amino)-3-oxopropan-2-yl)-1-methyl-1H-pyrazole-5-carboxamide] | 1.01 µM
O=C(CCC(F)(F)F)NC(c1ccnc(NC(=O)[C@@H](NC(=O)c2ncco2)C2CCC(F)(F)CC2)c1)C1CC1 (stereo partly drawn) [Example 105, N-((1S)-2-((4-(cyclopropyl(4,4,4-trifluorobutanamido)methyl)pyridin-2-yl)amino)-1-(4,4-difluorocyclohexyl)-2-oxoethyl)oxazole-2-carboxamide] | 3.34 µM
Cn1nccc1C(=O)N[C@H](C(=O)Nc1cc(CN2C[C@@H](C(F)(F)F)NC2=O)ccn1)[C@H]1CC[C@@H](C)CC1 [Example 264, 1-Methyl-N—((S)-1-((1s,4R)-4-methylcyclohexyl)-2-oxo-2-((4-(((S)-2-oxo-4-(trifluoromethyl)imidazolidin-1-yl)methyl)pyridin-2-yl)amino)ethyl)-1H-pyrazole-5-carboxamide] | 0.099 µM
CCn1nccc1C(=O)N[C@H](C(=O)Nc1cc([C@@H](C)N2C[C@@H](C(F)(F)F)NC2=O)ccn1)[C@H]1CC[C@H](C)CC1 [Example 239, 1-ethyl-N-((S)-1-((1r,4S)-4-methylcyclohexyl)-2-oxo-2-((4-((R)-1-((S)-2-oxo-4-(trifluoromethyl)imidazolidin-1-yl)ethyl)pyridin-2-yl)amino)ethyl)-1H-pyrazole-5-carboxamide] | 0.016 µM
Cn1nccc1C(=O)N[C@@H](COC(C)(C)C(F)(F)F)C(=O)Nc1cc(CN2C[C@@H](C(F)(F)F)NC2=O)ccn1 [Example 275, 1-methyl-N-((S)-1-oxo-1-((4-(((S)-2-oxo-4-(trifluoromethyl)imidazolidin-1-yl)methyl)pyridin-2-yl)amino)-3-((1,1,1-trifluoro-2-methylpropan-2-yl)oxy)propan-2-yl)-1H-pyrazole-5-carboxamide] | 0.946 µM
COC[C@H](c1ccnc(NC(=O)[C@@H](NC(=O)c2nocc2C2CCC2)C2CCC(F)(F)CC2)c1)N1C[C@@H](C(F)(F)F)NC1=O [Example 191, 4-cyclobutyl-N-((S)-1-(4,4-difluorocyclohexyl)-2-((4-((S)-2-methoxy-1-((S)-2-oxo-4-(trifluoromethyl)imidazolidin-1-yl)ethyl)pyridin-2-yl)amino)-2-oxoethyl)isoxazole-3-carboxamide] | 0.031 µM
Cc1nonc1C(=O)N[C@H](C(=O)Nc1cc([C@@H](C)N2C[C@@H](C(F)(F)F)NC2=O)ccn1)[C@H]1CC[C@H](C)CC1 [Example 237, 4-methyl-N—((S)-1-((1r,4S)-4-methylcyclohexyl)-2-oxo-2-((4-((R)-1-((S)-2-oxo-4-(trifluoromethyl)imidazolidin-1-yl)ethyl)pyridin-2-yl)amino)ethyl)-1,2,5-oxadiazole-3-carboxamide] | 0.022 µM
COCC(c1ccnc(NC(=O)[C@@H](NC(=O)c2nonc2C2CC2)C2CCC(F)(F)CC2)c1)[C@H]1C[C@@H](C(F)(F)F)NC1=O (single isomer, unassigned) [Example 185, 4-Cyclopropyl-N-((1S)-1-(4,4-difluorocyclohexyl)-2-((4-((R or S)-2-methoxy-1-((3R,5S)-2-oxo-5-(trifluoromethyl)pyrrolidin-3-yl)ethyl)pyridin-2-yl)amino)-2-oxoethyl)-1,2,5-oxadiazole-3-carboxamide] | 0.046 µM
CC(C)(OC[C@H](NC(=O)c1nonc1C1CC1)C(=O)Nc1cc(CN2C[C@@H](C(F)(F)F)NC2=O)ccn1)C(F)(F)F [Example 274, 4-cyclopropyl-N-((S)-1-oxo-1-((4-(((S)-2-oxo-4-(trifluoromethyl)imidazolidin-1-yl)methyl)pyridin-2-yl)amino)-3-((1,1,1-trifluoro-2-methylpropan-2-yl)oxy)propan-2-yl)-1,2,5-oxadiazole-3-carboxamide] | 0.075 µM

Results, then the molecule that gave them:

IC50 | Molecule
0.403 µM | Cc1nonc1C(=O)N[C@@H](COC(C)(C)C(F)(F)F)C(=O)Nc1cc(CN2C[C@@H](C(F)(F)F)NC2=O)ccn1 [Example 273, 4-methyl-N—((S)-1-oxo-1-((4-(((S)-2-oxo-4-(trifluoromethyl)-imidazolidin-1-yl)methyl)pyridin-2-yl)amino)-3-((1,1,1-trifluoro-2-methylpropan-2-yl)oxy)propan-2-yl)-1,2,5-oxadiazole-3-carboxamide]
0.522 µM | COCC(c1ccnc(NC(=O)[C@@H](NC(=O)OC(C)(C)C)[C@H]2CC[C@H](C)CC2)c1)N1C[C@@H](C(F)(F)F)NC1=O (single isomer, unassigned) [Example 65, tert-butyl ((S)-2-((4-((S or R)-2-methoxy-1-((S)-2-oxo-4-(trifluoromethyl)imidazolidin-1-yl)ethyl)pyridin-2-yl)amino)-1-((1r,4S)-4-methylcyclohexyl)-2-oxoethyl)carbamate]
0.333 µM | O=C(N[C@H](C(=O)Nc1cc(CN2C[C@@H](C(F)(F)F)NC2=O)ccn1)C1CCC(F)(F)CC1)c1ccnn1C1CC1 [Example 14, 1-cyclopropyl-N-((S)-1-(4,4-difluorocyclohexyl)-2-oxo-2-((4-(((S)-2-oxo-4-(trifluoromethyl)imidazolidin-1-yl)methyl)pyridin-2-yl)amino)ethyl)-1H-pyrazole-5-carboxamide]
1.23 µM | Cn1nccc1C(=O)N[C@H](C(=O)Nc1cc(CN2C[C@@H](C(F)(F)F)NC2=O)c(F)cn1)[C@H]1CC[C@H](C)CC1 [Example 64, N-((S)-2-((5-fluoro-4-(((S)-2-oxo-4-(trifluoromethyl)-imidazolidin-1-yl)methyl)-pyridin-2-yl)amino)-1-((1r,4S)-4-methylcyclo-hexyl)-2-oxoethyl)-1-methyl-1H-pyrazole-5-carboxamide]
2.03 µM | C[C@H]1CC[C@H]([C@H](NC(=O)c2nonc2C2CC2)C(=O)Nc2cc(C[C@@H]3C[C@@H](C(F)(F)F)NC3=O)ccn2)CC1 [Example 152, 4-cyclopropyl-N—((S)-1-((1r,4S)-4-methylcyclohexyl)-2-oxo-2-((4-(((3R,5S)-2-oxo-5-(trifluoromethyl)pyrrolidin-3-yl)methyl)pyridin-2-yl)amino)ethyl)-1,2,5-oxadiazole-3-carboxamide]
0.042 µM | N-((S)-2-((4-((S)-1-(5,5-difluoro-2-oxotetrahydropyrimidin-1(2H)-yl)-2-methoxyethyl)pyridin-2-yl)amino)-1-(4,4-difluorocyclohexyl)-2-oxoethyl)-4-ethyl-1,2,5-oxadiazole-3-carboxamide [Example 183]
